Data: EP1947089A1, “A-polymorph of a substituted pyrazoline, its preparation and use as medicaments” (Laboratorios del Dr. Esteve S.A., priority 2007, dated 2008)

Columns and labels:
Herg channel = Herg channel (Homo sapiens, UniProt Q12809); test: Herg channel affinity; type: binding; settings: general statement, no value given; low risk of QT prolongation expected
[1] = Behaviour of the solid form under pressure stress; type: physicochemical; settings: 98 kN (98.07 kN), 13 mm diameter samples, 1, 5 and 30 minutes
Procedure: Samples of the a-Polymorph were submitted to pressure stress for various periods of time (1, 5 and 30 minutes) to investigate the effect of pressure on the solid form. The pressure (98kN) used was chosen to correspond to correspond to the pressure at which planar tablets, of a diameter between 10 and 15 mm, are made. […] Precisely, 13 mm diameter samples of the polymorph were submitted to 98.07 kN of pressure using a Specac press for 1, 5 and 30 minutes and analysed, with no difference.

[2] = Thermogravimetric (TG) analysis; type: physicochemical; settings: 10°C/min between 30 and 600°C, under nitrogen; no weight loss at lower temperatures
Procedure: Thermogravimetric analyses (TGA) were recorded in a Mettler Toldo SDTA851 e. Samples of approximately 2 mg were weighted into open 40 µlalumina crucibles, and heated at 10°C/min between 30 and 600°C, under nitrogen (80 ml/min).

Sequence of Herg channel (Q12809 whole entry): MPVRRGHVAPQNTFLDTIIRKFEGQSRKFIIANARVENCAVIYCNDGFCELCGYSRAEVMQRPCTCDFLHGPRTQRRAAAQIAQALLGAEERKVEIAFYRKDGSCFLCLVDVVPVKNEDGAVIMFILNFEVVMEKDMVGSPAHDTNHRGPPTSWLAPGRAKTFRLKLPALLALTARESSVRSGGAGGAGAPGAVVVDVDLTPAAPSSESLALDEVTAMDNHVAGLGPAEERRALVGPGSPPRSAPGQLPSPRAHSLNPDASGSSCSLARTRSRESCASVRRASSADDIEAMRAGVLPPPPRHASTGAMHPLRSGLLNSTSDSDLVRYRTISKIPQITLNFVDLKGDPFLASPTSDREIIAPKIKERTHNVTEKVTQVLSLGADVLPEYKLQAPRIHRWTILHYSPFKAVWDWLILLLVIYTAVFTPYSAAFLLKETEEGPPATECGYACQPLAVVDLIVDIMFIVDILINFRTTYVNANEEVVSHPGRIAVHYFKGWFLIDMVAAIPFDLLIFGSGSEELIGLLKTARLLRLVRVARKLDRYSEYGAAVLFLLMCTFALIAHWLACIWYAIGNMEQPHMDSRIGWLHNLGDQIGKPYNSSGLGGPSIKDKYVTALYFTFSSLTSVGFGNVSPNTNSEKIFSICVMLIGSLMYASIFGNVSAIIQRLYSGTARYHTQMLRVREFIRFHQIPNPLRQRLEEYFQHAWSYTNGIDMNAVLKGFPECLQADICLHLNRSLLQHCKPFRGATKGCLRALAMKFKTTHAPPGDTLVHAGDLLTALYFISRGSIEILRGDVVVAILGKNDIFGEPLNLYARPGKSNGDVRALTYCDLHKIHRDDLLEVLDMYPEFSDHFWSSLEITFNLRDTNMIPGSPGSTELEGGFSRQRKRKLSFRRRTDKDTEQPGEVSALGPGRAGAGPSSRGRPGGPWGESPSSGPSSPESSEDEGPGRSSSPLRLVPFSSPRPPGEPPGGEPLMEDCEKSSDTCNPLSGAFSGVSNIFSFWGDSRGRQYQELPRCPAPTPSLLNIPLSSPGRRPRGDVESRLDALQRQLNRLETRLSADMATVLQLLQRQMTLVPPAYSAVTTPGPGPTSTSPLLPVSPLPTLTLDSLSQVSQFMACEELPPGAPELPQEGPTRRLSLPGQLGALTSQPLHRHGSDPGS

Row | Structure (SMILES) | Herg channel affinity (Herg channel) | effect of pressure on the solid form (phase change) [1] | temperature of weight loss due to decomposition (TG analysis) [2]
1 | O=C(NN1CCCCC1)C1=NN(c2ccc(Cl)cc2Cl)C(c2ccc(Cl)cc2)C1 (racemic) [COMPOUND C, N-piperidinyl-5-(4-chlorophenyl)-1-(2,4-dichlorophenyl)-4,5-dihydro-1H-pyrazole-3-carboxamide] | relatively weak |  | 
2 | O=C(NN1CCCCC1)C1=NN(c2ccc(Cl)cc2Cl)C(c2ccc(Cl)cc2)C1 (racemic) [α-Polymorph, α-Polymorph of N-piperidinyl-5-(4-chlorophenyl)-1-(2,4-dichlorophenyl)-4,5-dihydro-1H-pyrazole-3-carboxamide] |  | did not induce any phase change | higher than 280 °C
